Earlier results on 18 molecules are cited in patent publication US12194073B1, “Method of arthropod egress” (priority 2023, dated 2025).

For data set [1] the following is noted: for drug payload: solution in squalane, with/without mineral oil.
For data set [2] the following is noted: squalane, with/without mineral oil, as vehicle.
For data set [3] the following is noted: for ocular adverse effects: suspension in vegetable oils, glycerol, mineral oil and white petrolatum.
The conditions of data set [4]: for shelf stability at ambient temperature: suspension in vegetable oils, glycerol, mineral oil and white petrolatum.
For data set [5] the following is noted: for therapeutic effect: suspension in vegetable oils, glycerol, mineral oil and white petrolatum.
Test in data set [6]: not given
This is another data set of the same source.

The conditions of data set [7]: solution in SFA (F4H5).
Another data set concerns Demodex folliculorum. Particulars: all three concentrations; in vitro; vs 5% permethrin.
Test in data set [8]: not given
This is another data set of the same source.

The conditions of data set [9]: self-emulsifying system; corn oil, PEG-6 esters, Tween 80 and Transcutol.
[10] abbreviates: suspension in sesame seed oil vs high-dose viscous aqueous formulation.
Setting [11] is: self-emulsifying system, S-protected thiolated Eudragit L100-55-BAK ion pair, Labrafil M 1944CS.
Where [12] appears, read: self-emulsifying system, Capmul MCM, Cremophor RH 40, Transcutol and hydroxypropylmethyl cellulose.
[13] abbreviates: oleogel, soyabean oil, beeswax and gelator.
Where [14] appears, read: solution in DMSO and castor oil.
[15] abbreviates: self-emulsifying system, corn oil, PEG-6 esters, Tween 80 and Transcutol.

Where two headings read alike, the source gives them in different places.

On to `C[C@]12CCC(=O)C=C1CC[C@@H]1[C@@H]2[C@@H](O)C[C@@]2(C)[C@H]1CC[C@]2(O)C(=O)CO` [Hydrocortisone], for which the drug payload result in [1] was “high drug payload; potential to reduce dosing”.
For `C[C@]12C=CC(=O)C=C1CC[C@@H]1[C@@H]2[C@@H](O)C[C@@]2(C)[C@H]1CC[C@]2(O)C(=O)CO` [Prednisolone], the drug payload entry in data set [1] is reported as “high drug payload; potential to reduce dosing”. Moreover, the precorneal drainage entry (self-emulsifying system, linoleic acid, Cremophor RH 40 and propylene glycol) was “reduced”.
Consider `CC(C)CCCC(C)CCCC(C)CCCCC(C)CCCC(C)CCCC(C)C` (stereo not drawn) [Squalane], for which, in data set [2], the “symptomatic relief in DED (vehicle)” value is listed as “Vehicle beneficial for symptomatic relief in DED;”.
For the molecule `Cc1ccccc1N1CCN(CCc2nnc3n2CCCC3)CC1` [dapiprazole], in [3], the ocular adverse effects result is recorded as “reduced”. Moreover, the “shelf stability at ambient temperature” value in data set [4] was “adverse effects; improved shelf stability at ambient”. In addition, in [5], the therapeutic effect entry was “Improved”.
Turning to `CNC[C@H](O)c1cccc(O)c1` [Phenylephrine], in data set [5] (setting [10]), the onset of action entry is on record as “Faster” and the therapeutic response entry was “higher”.
Consider `CC[C@@H]1/C=C(\C)C[C@H](C)C[C@H](OC)[C@H]2O[C@@](O)(C(=O)C(=O)N3CCCC[C@H]3C(=O)O[C@H](/C(C)=C/[C@@H]3CC[C@H](Cl)[C@H](OC)C3)[C@H](C)[C@@H](O)CC1=O)[C@H](C)C[C@@H]2OC` [Pimecrolimus], for which the drug payload entry in [1] is recorded as “high drug payload; potential to reduce dosing”. Moreover, the safety entry in data set [6] (dog, in vivo) is “Better”. Besides, the clinical outcomes in data set [6] (solution in corn oil vs ointments, dogs with DED) was “Better clinical outcomes”.
As for `O=C(O)c1cn(C2CC2)c2cc(N3CCNCC3)c(F)cc2c1=O` [ciprofloxacin], in data set [1], the drug payload entry is recorded as “high drug payload; potential to reduce dosing”.
For the molecule `CC[C@@H]1C(=O)OC[C@@H]1Cc1cncn1C` [Pilocarpine], the ocular adverse effects result in data set [3] is “reduced”. Besides, the “shelf stability at ambient temperature” value in [4] was “adverse effects; improved shelf stability at ambient”. The therapeutic effect result in [5] is “Improved”.
With `Clc1ccc(COC(Cn2ccnc2)c2ccc(Cl)cc2Cl)cc1` (stereo not drawn) [Econazole nitrate], in [1] (setting [11]), the “in vitro release profile” value is recorded as “good in vitro release profile; no in vivo studies”, the mucoadhesion result is “Mucoadhesive” and the “sustained drug release over” value is on record as 8 h. In addition, under setting [12], the penetration entry is reported as “Enhanced”. Besides, in data set [3] (setting [12]), the “in vitro and in vivo safety” value is “acceptable in vitro and in vivo safety”. Besides, the onset of action entry in data set [5] (setting [12]) is “faster”.
Regarding `C=CC[C@@H]1/C=C(\C)C[C@H](C)C[C@H](OC)[C@H]2O[C@@](O)(C(=O)C(=O)N3CCCC[C@H]3C(=O)O[C@H](/C(C)=C/[C@@H]3CC[C@@H](O)[C@H](OC)C3)[C@H](C)[C@@H](O)CC1=O)[C@H](C)C[C@@H]2OC` [Tacrolimus], the intraocular penetration result (solution in SFA (F4H5) vs aqueous suspension) is recorded as “greater intraocular penetration than aqueous”. The “clinical signs of uveitis” value in [7] is “Significant improvement in clinical signs of uveitis;”.
In the case of `CC[C@H]1OC(=O)[C@H](C)[C@@H](O[C@H]2C[C@@](C)(OC)[C@@H](O)[C@H](C)O2)[C@H](C)[C@@H](O[C@@H]2O[C@H](C)C[C@H](N(C)C)[C@H]2O)[C@](C)(O)C[C@@H](C)CN(C)[C@H](C)[C@@H](O)[C@]1(C)O` [Azithromycin], in data set [3] (Azyter, solution in MCT), the “adverse events (if any) in clinical trials” value is recorded as “mild to moderate” and the tolerability result is on record as “well tolerated”.
On to `CC(C)OC(=O)CCC/C=C\C[C@@H]1[C@@H](CC[C@@H](O)CCc2ccccc2)[C@H](O)C[C@@H]1O` [Latanoprost], for which the bioavailability entry (solution in SFA (F4H5, F6H8)) is “eyedrops at relatively lower dose; improved”. Moreover, the Clinical efficacy result in data set [5] (solution in SFA (F4H5, F6H8) at relatively lower dose vs marketed aqueous eyedrops) is on record as “Clinical efficacy comparable to marketed aqueous”.
In the case of `CN[C@H](CC(C)C)C(=O)N[C@H]1C(=O)N[C@@H](CC(N)=O)C(=O)N[C@H]2C(=O)N[C@H]3C(=O)N[C@H](C(=O)N[C@H](C(=O)O)c4cc(O)cc(O)c4-c4cc3ccc4O)[C@H](O)c3ccc(c(Cl)c3)Oc3cc2cc(c3O[C@@H]2O[C@H](CO)[C@@H](O)[C@H](O)[C@H]2O[C@H]2C[C@](C)(N)[C@H](O)[C@H](C)O2)Oc2ccc(cc2Cl)[C@H]1O` [Vancomycin], in [1] (setting [13]), the drug release entry is listed as “Extended”; the “release profile and oleogel texture” value was “customisable”.
With `O=C(O)CCCCCCCC(=O)O` [azelaic acid], in the data set on Demodex folliculorum, the anti-Demodex efficacy result is given as “comparable to that of 5% permethrin”.
Turning to `O=C(O)c1cccc(-c2noc(-c3ccccc3F)n2)c1` [Ataluren], in data set [4] (setting [14]), the Sterility entry was “Sterility maintained and drug degradation”; the drug degradation result is “inhibited; no penetration studies performed”.
As for ivermectin, in [8], the “solubility among the oils tested” value is “highest solubility in tea tree oil followed by ethylbutanoate”.
As to `C[C@]12C=CC(=O)C=C1CC[C@H]1[C@@H]3C[C@@H](O)[C@](O)(C(=O)CO)[C@@]3(C)C[C@H](O)[C@@]12F` [triamcinolone], in [1] (setting [13]), the drug release result is given as “Extended”; the “release profile and oleogel texture” value was “customisable”.
Regarding `CC(C)N1CCN(c2ccc(OCC3COC(Cn4cncn4)(c4ccc(Cl)cc4Cl)O3)cc2)CC1` (stereo not drawn) [Terconazole], the drug release entry in data set [1] (setting [15]) is on record as “rapid”. Also, in [9], the “conjunctival irritation in vitro” value is “no”. In [4] (setting [15]), the drug stability result was “Improved”.
